ChEMBL document CHEMBL3616398, “Recent advances on the synthesis of hepatitis C virus NS5B RNA-dependent RNA-polymerase inhibitors” (Eur J Med Chem, 2015)

Experiments:
[1] = test system: Hepatitis C virus; assay: Antiviral activity against HCV genotype 1b replicon system; assay type: functional, organism-based, Hepacivirus hominis
[2] = Inhibition of HCV genotype 1b NS5B RNA dependent RNA polymerase assessed as inorganic pyrophosphate generation by luminometry; set-up: species or system Hepatitis C virus subtype 1b
[3] = test system: Hepatitis C virus; assay: Antiviral activity against HCV genotype 1b infected in human Ava.5 cells after 3 days assessed as protection from virus-induced cytotoxicity by MTT assay; assay type: functional, organism-based, Hepacivirus hominis; conditions: Ava5, 72 h

Compound | IC50 [1] [µM] | IC50 [2] [µM] | EC50 [3] [µM]
Cc1nc2c(s1)CCCn1c-2c(C2CCCCC2)c2ccc(C(=O)O)cc21 | 8.3 |  | 
O=C(NCCCc1ccccc1)c1nc2ccccc2c(=O)n1O |  | 8.77 | 17.5
